# Assays:
# [1] = system: hematopoietic stem and progenitor pool sizes in the bone marrow; assay: Flow cytometry analysis of hematopoietic stem and progenitor pool sizes in bone marrow of mice fed the agent; format: in vivo, mouse; details: 1 week treatment through the food, flow cytometry
# Procedure: Bone marrow (BM) cells were isolated from C57Bl/6J and C57Bl/6J Ly5.1 from crushed femora and tibia. Flow cytometry analysis of hematopoietic stem and progenitor cells was performed on freshly isolated bone marrow (BM). Cell suspensions were filtered through a 70 μm cell strainer and erythroid cells were eliminated by incubation with red blood cells lysis buffer (eBioscences). Lineage-positive cells were removed with a magnetic lineage depletion kit (Miltenyi Biotech). Cell suspensions were stained with a panel of specific antibodies for stem and progenitor cells and analyzed or FACS-sorted respectively on a BD LSRII and BD FACS Aria II.
# C57Bl/6J and C57Bl/6J Ly5.1 were purchased from Charles River Laboratories International and maintained in micro-isolator cages. Mice were provided continuously with sterile food, water and bedding. Nicotinamide riboside (NR) (custom synthesized as triflate salt by Novalix in Strasbourg) was supplied in the food at 0.4 g/Kg mouse and mice were treated for 1 and 4 weeks respectively.
# [2] = Konieczna et al., 2013; cited from earlier work
# [3] = system: HSC mitochondrial activity; assay: In vivo assay of HSC mitochondrial activity: TMRM flow cytometry of freshly isolated HSC from mice fed the compounds; set-up: species or system mouse; details: mice fed with the compounds
# Text: The effect of agents on HSC mitochondrial activity has been assessed by measuring mitochondrial activity in vivo: freshly isolated HSC from mice fed with the compounds were stained by TMRM and analyzed by flow cytometry.
compound,measurement,setting,value
"NC(=O)c1cccnc1 [NAM, Nicotinamide]",hematopoietic stem and progenitor compartments in BM,[1],did not show significant expansion
same,platelet levels in mice,[2],did not increase the platelet levels
same,ability to reduce mitochondrial membrane potential in HSCs,[3],not able to significantly reduce mitochondrial membrane potential in HSCs

# Source: patent US20170252362A1, “METHODS & COMPOUNDS USEFUL IN HEMATOPOIETIC STEM CELL MEDICINE” (ECOLE POLYTECHNIQUE FEDERALE DE LAUSANNE (EPFL), priority 2014, published 2017)
